Assay results: ChEMBL document CHEMBL5038651, “Design, Synthesis, and Biological Evaluation of 2-((4-Bisarylmethyl-piperazin-1-yl)methyl)benzonitrile Derivatives as HCV Entry Inhibitors” (J Med Chem, 2022)
pEC50: −log10 of the molar value. Active and inactive are the calls of the source. The rule behind the calls is not given here.

Assays:
[1] = Cytotoxicity against human Huh7.5 cells assessed as reduction in cell viability incubated for 96 hrs by MTT assay; assay type: toxicity, cell-based, Huh-7.5; settings: Huh7.5 cells
[2] = test system: Hepatitis C virus; assay: Antiviral activity against HCV infected in human Huh7.5 cells incubated for 72 hrs by in-cell western assay; assay type: functional, organism-based, Hepacivirus hominis; settings: Huh7.5, 72 h
[3] = Selectivity index, ratio of CC50 for cytotoxicity against human Huh7.5.1 cells to EC50 for antiviral activity against HCV infected in human Huh7.5.1 cells; assay type: toxicity, cell-based; settings: read-out: Ratio CC50/EC50
[4] = test system: Hepacivirus hominis; assay: Binding affinity to HCV E1 protein at 12.5 to 200 uM by SPR analysis; settings: dose 12.5-200 µM
[5] = MRT in Sprague-Dawley rat at 15 mg/kg, po administered as single dose measured upto 24 hrs by LC-MS/MS analysis; assay type: ADME, organism-based; settings: in vivo
[6] = AUC (0 to infinity) in Sprague-Dawley rat at 15 mg/kg, po administered as single dose measured upto 24 hrs by LC-MS/MS analysis; assay type: ADME, organism-based; set-up: route oral, dose 15 mg/kg, time <=24; settings: in vivo
[7] = test system: Hepatitis C virus; assay: Antiviral activity against HCVcc infected in human Huh7.5 cells assessed as inhibition of viral replication; assay type: functional, organism-based, Hepacivirus hominis
[8] = test system: Hepatitis C virus; assay: Antiviral activity against HCV infected in human Huh7.5 cells carrying HCV subgenomic replicons assessed as inhibition of viral replication; assay type: functional, organism-based, Hepacivirus hominis
[9] = Cytotoxicity against human Huh7.5 cells infected with HCVcc assessed as reduction in cell viability incubated for 96 hrs by MTT assay; assay type: toxicity, cell-based, Huh-7.5
[10] = Cytotoxicity against human Huh7.5 cells carrying HCV subgenomic replicons assessed as reduction in cell viability incubated for 96 hrs by MTT assay; assay type: toxicity, cell-based, Huh-7.5
[11] = Half life in Sprague-Dawley rat at 15 mg/kg, po administered as single dose measured upto 24 hrs by LC-MS/MS analysis; assay type: ADME, organism-based; settings: in vivo
[12] = Tmax in Sprague-Dawley rat at 15 mg/kg, po administered as single dose measured upto 24 hrs by LC-MS/MS analysis; assay type: ADME, organism-based; settings: in vivo
[13] = Cmax in Sprague-Dawley rat at 15 mg/kg, po administered as single dose measured upto 24 hrs by LC-MS/MS analysis; assay type: ADME, organism-based; set-up: route oral, dose 15 mg/kg, time <=24; settings: in vivo
[14] = Plasma concentration in Sprague-Dawley rat at 15 mg/kg, po administered as single dose measured up to 24 hrs by LC-MS/MS analysis; assay type: ADME, organism-based
[15] = target: Histamine H1 receptor (Homo sapiens) (UniProt P35367); assay: Antagonist activity against H1 receptor (unknown origin) expressed in HEK cells at 1 uM relative to control; assay type: functional, cell-based
[16] = test system: Hepatitis C virus; assay: Antiviral activity against HCV infected in human Huh7.5 cells assessed as reduction in viral RNA level preincubated for 2 hrs prior to viral infection and measured after 72 hrs by RT-qPCR analysis; assay type: functional, organism-based; settings: Hepacivirus hominis, time 74.0 hrs
[17] = test system: Hepatitis C virus; assay: Antiviral activity against HCV infected in human Huh7.5 cells assessed as reduction in viral RNA level measured after 72 hrs by RT-qPCR analysis; assay type: functional, organism-based; settings: Hepacivirus hominis
[18] = test system: Hepatitis C virus; assay: Antiviral activity against HCV infected in human Huh7.5 cells assessed as reduction in HCV core protein expression measured after 72 hrs by Western blotting analysis; assay type: functional, organism-based; settings: Hepacivirus hominis
[19] = test system: Hepatitis C virus; assay: Antiviral activity against HCV infected in human Huh7.5 cells assessed as reduction in HCV core protein expression preincubated for 2 hrs followed by viral infection and measured after 72 hrs by Western blotting analysis; assay type: functional, organism-based; settings: Hepacivirus hominis, time 74.0 hrs
[20] = test system: Hepatitis C virus; assay: Antiviral activity against HCV infected in human Huh7.5 cells assessed as reduction in HCV core protein expression pre-infected with virus for 2 hrs followed by compound addition and measured after 72 hrs by Western blotting analysis; assay type: functional, organism-based; settings: Hepacivirus hominis
[21] = test system: Hepatitis C virus; assay: Antiviral activity against HCV infected in human Huh7.5 cells carrying HCV subgenomic replicons assessed as inhibition of viral replication at 1.4 uM; assay type: functional, organism-based; settings: Hepacivirus hominis
[22] = test system: Hepatitis C virus; assay: Antiviral activity against HCV infected in human Huh7.5 cells assessed as reduction in HCV core protein expression at 6.4 nM incubated for 72 hrs by in-cell western assay; assay type: functional, organism-based; settings: Hepacivirus hominis
[23] = test system: Hepatitis C virus; assay: Antiviral activity against HCV infected in human Huh7.5 cells assessed as reduction in viral RNA level pre-infected with virus for 2 hrs followed by compound addition and measured after 72 hrs by RT-qPCR analysis; assay type: functional, organism-based; settings: Hepacivirus hominis
[24] = Selectivity index, ratio of CC50 for cytotoxicity against human Huh7.5 cells infected with HCVcc to EC50 for antiviral activity against HCVcc infected in human Huh7.5 cells; assay type: toxicity, cell-based; settings: read-out: Ratio CC50/EC50

Sequence of Histamine H1 receptor (Homo sapiens) (P35367 whole entry): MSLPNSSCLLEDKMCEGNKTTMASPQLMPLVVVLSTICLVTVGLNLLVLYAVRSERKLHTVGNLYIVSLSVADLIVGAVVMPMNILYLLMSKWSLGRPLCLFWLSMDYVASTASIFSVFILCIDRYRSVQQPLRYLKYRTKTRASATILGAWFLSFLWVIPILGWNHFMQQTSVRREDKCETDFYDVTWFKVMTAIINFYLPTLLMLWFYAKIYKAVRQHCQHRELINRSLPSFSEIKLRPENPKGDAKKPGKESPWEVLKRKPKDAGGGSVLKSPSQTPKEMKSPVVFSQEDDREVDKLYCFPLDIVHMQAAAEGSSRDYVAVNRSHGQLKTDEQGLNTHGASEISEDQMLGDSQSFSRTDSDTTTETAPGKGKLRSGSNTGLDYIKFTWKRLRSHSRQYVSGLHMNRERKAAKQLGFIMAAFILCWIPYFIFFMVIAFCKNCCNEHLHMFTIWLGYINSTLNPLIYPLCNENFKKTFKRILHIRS

SMILES	pEC50 [2]	CC50 at 96 h [1] [µM]	selectivity ratio [3]	further results
CN1CCN(C(c2ccccc2)c2ccc(Cl)cc2)CC1 (configuration not stated) [CHLORCYCLIZINE]				pEC50 [7]: 7.17; pEC50 [8]: < 5.80; CC50 at 96 h [9]: 30.8 µM; CC50 at 96 h [10]: 30.2 µM; inhibition ([15]; filed as antagonist): 99%; selectivity ratio [24]: 456; Activity [22]: inactive
CC(c1ccccc1)N1CCN(Cc2cc(N(C)CCN(C)C)ccc2C#N)CC1 (configuration not stated)	5.99	44.1	43	
CN1CCCN(c2ccc(C#N)c(CN3CCN(C(=O)c4ccc(Cl)cc4)CC3)c2)CC1	< 5.40	9.7		
COCCOc1ccc(C#N)c(CN2CCN(C(c3ccc(F)cc3)c3ccc(F)cc3)CC2)c1	< 4.70	6.45		
COCCOc1ccc(C#N)c(CN2CCN(c3ccc(C(F)(F)F)cc3)CC2)c1	5.82	2.97		
CN1CCCN(c2ccc(C#N)c(CN3CCN(C(=O)c4ccc(F)cc4)CC3)c2)CC1	< 5.40	13.8		
CN(C)CCN(C)c1ccc(C#N)c(CN2CCN(Cc3ccc(F)cc3)CC2)c1	5.45	52.7	14	

More lines, main results first:

pEC50 [2]	SMILES	CC50 at 96 h [1] [µM]	selectivity ratio [3]	further results
7.26	CN1CCCN(c2ccc(C#N)c(CN3CCN([C@@H](c4ccccc4)c4ccc(Cl)cc4)CC3)c2)CC1	> 20	> 364	
7.14	CN(C)CCN(C)CCN(C)c1ccc(C#N)c(CN2CCN(C(c3ccccc3)c3ccc(Cl)cc3)CC2)c1 (configuration not stated)	6.34	87	
6.02	CC(c1ccccc1)N1CCN(Cc2cc(N3CCCN(C)CC3)ccc2C#N)CC1 (configuration not stated)	31.3	33	
8.10	CN(C)CCN(C)c1ccc(C#N)c(CN2CCN(C(c3ccc(F)cc3)c3ccc(F)cc3)CC2)c1	7.81	976	Activity [4]: Active
8.40	CN1CCCN(c2ccc(C#N)c(CN3CCN(C(c4ccccc4)c4ccc(Cl)cc4)CC3)c2)CC1 (configuration not stated)	7.34	1930	MRT [5]: 8.59 h; AUC(0-inf) [6]: 848 ng·h/mL; pEC50 [7]: 8.48; pEC50 [8]: < 5.80; CC50 at 96 h [9]: 3.72 µM; CC50 at 96 h [10]: 5.22 µM; half-life [11]: 4.87 h; Tmax [12]: 5.33 h; Cmax [13]: 97.9 ng/mL; concentration at 24 h [14]: 6.06 ng/mL; Activity [4]: Active; Activity [15]: inactive; Activity [16]: inactive; Activity [17]: inactive; Activity [18]: Active; Activity [19]: inactive; Activity [20]: Active; Activity [21]: inactive; Activity [22]: Active; Activity [23]: Active
6.96	N#Cc1ccc(NCCCn2ccnc2)cc1CN1CCN(C(c2ccc(Cl)cc2)c2ccc(Cl)cc2)CC1	> 20	> 182	
8.52	CN1CCCN(c2ccc(C(F)(F)F)c(CN3CCN(c4ccc(Cl)cc4)CC3)c2)CC1	2.56	855	
6.66	N#Cc1ccc(NCCCn2ccnc2)cc1CN1CCN(C(c2ccccc2)c2ccc(Cl)cc2)CC1 (configuration not stated)	5.38	24	
6.79	N#Cc1ccc(NCCCn2ccnc2)cc1CN1CCN(C(c2ccc(F)cc2)c2ccc(F)cc2)CC1	5.89	36	
7.08	CN1CCCN(c2ccc(C(F)(F)F)c(CN3CCN(C(c4ccccc4)c4ccc(Cl)cc4)CC3)c2)CC1 (configuration not stated)	1.29	15	
